Tests used:
[1] = biological target: B. licheniformis strain B6 glyphosate-N-acetyltransferase (GAT), native, B6, SEQ ID NO:7 (Bacillus licheniformis, UniProt Q65LG7); assay: Apparent KM for Acetyl CoA and kcat of purified GAT, mass spectrometric detection of N-acetyl glyphosate; type: biochemical
[2] = biological target: non-native GAT polypeptide 17-15H3 (SEQ ID NO:601), glyphosate-N-acetyltransferase (Bacillus licheniformis, UniProt Q65LG7); assay: GAT activity with respect to glyphosate, aspartate and serine (Table 21), DTNB read-out; type: biochemical; settings: AcCoA as acetyl donor, 25 mM Hepes, pH 6.8, 10% ethylene glycol
Method: (§1) GAT activity of several GAT polypeptides of the disclosure was evaluated with respect to a number of amino acid substrates. The GAT polypeptide, AcCoA and amino substrate were incubated in 25 mM Hepes, pH 6.8, 10% ethylene glycol in the wells of a 96-well polystyrene plate. After 30 minutes, the reactions were stopped by the addition of 30 µl of 10 mM 5, 5'-dithiobis-2-nitrobenzoate (DTNB) in 500 mM Tris, pH 7.5. After 2 minutes, absorbance was read at 412 nm in a Spectramax Plus plate reader (Molecular Devices, Sunnyvale, CA).
(§2) Activity with the other protein amino acids was either undetected or less than 3% that of GAT activity towards glyphosate as the substrate. […] The percentages refer to percent activity relative to activity of the GAT polypeptide towards the substrate, glyphosate. Some of the data is shown below in Table 21. Table 21: GAT activity with respect to Glyphosate, Aspartate and Serine

[3] = biological target: non-native GAT polypeptide 25-8H7 (SEQ ID NO:907), glyphosate-N-acetyltransferase (Bacillus licheniformis, UniProt Q65LG7); assay: as above; type: biochemical; settings: AcCoA as acetyl donor, 25 mM Hepes, pH 6.8, 10% ethylene glycol
Method: as §1, §2

[4] = biological target: native GAT polypeptide 401 (SEQ ID NO:6), glyphosate-N-acetyltransferase (Bacillus licheniformis, UniProt Q65LG7); assay: as above; type: biochemical; settings: AcCoA as acetyl donor, 25 mM Hepes, pH 6.8, 10% ethylene glycol
Method: as §1, §2

[5] = biological target: GAT20-30C6 (SEQ ID NO:683) variant 20-30C6 H138S (Bacillus licheniformis, UniProt Q65LG7, form not given/H138S); assay: GAT kinetics of active-site mutants, 0 KCl, Bradford protein assay (Table 12); type: biochemical
Method: (§3) KM was calculated from the initial reaction rates obtained from concentrations of glyphosate ranging from 0.125 to 10 mM, using the Lineweaver-Burke transformation of the Michaelis-Menten equation. kcat/KM was determined by dividing the value determined for kcat by the value determined for KM.
(§4) The amino acids aspartic acid (Asp, D), histidine (His, H) and cysteine (Cys, C) are known to be associated with the active sites of various acetyltransferase enzymes. To determine if any such residues play a role in GAT activity, all D, C, and H residues of GAT20-30C6 (SEQ ID NO:683) were individually mutated to alanine (Ala, A) and the mutated enzymes assayed for N-acetylglyphosate activity. […]

[6] = system: GAT20-30C6 (SEQ ID NO:683) variant 20-30C6 H138A; assay: as above; type: biochemical
Method: as §3, §4

[7] = biological target: GAT20-30C6 (SEQ ID NO:683) variant 20-30C6 H41A (Bacillus licheniformis, UniProt Q65LG7, form not given/H41A); assay: as above; type: biochemical
Method: as §3, §4

[8] = biological target: GAT20-30C6 (SEQ ID NO:683), evolved glyphosate-N-acetyltransferase, unmodified (Bacillus licheniformis, UniProt Q65LG7); assay: as above; type: biochemical
Method: as §3, §4

[9] = biological target: GAT20-30C6 (SEQ ID NO:683) variant 20-30C6 H138R (Bacillus licheniformis, UniProt Q65LG7, form not given/H138R); assay: as above; type: biochemical
Method: as §3, §4

[10] = system: CC(=O)SCCNC(=O)CCNC(=O)[C@H](O)C(C)(C)COP(=O)(O)OP(=O)(O)OC[C@H]1O[C@@H](n2cnc3c(N)ncnc32)[C@H](O)[C@@H]1OP(=O)(O)O; assay: purified protein, by the assay type; settings: other: 5 mM glyphosate, 0.19 µM GAT, 5 mM morpholine pH 7.7, 50% methanol
[11] = system: O=C(O)CNCP(=O)(O)O; assay: Apparent KM for glyphosate of purified GAT, continuous spectrophotometric assay at 235 nm; type: biochemical, B. licheniformis; settings: other: saturating (200 µM) Acetyl CoA, 1 µM purified GAT, 5 mM morpholine pH 7.7, 20 % ethylene glycol, 37.0 °C
Text: Genomic DNA from B. licheniformis strain B6 was purified, partially digested with Sau3A1 and fragments of 1-10 Kb were cloned into an E. coli expression vector. A clone with a 2.5 kb insert conferred the glyphosate-N-acetyltransferase (GAT) activity on the E. coli host as determined with mass spectrometry analysis. […] Subsequent cloning of this open reading frame confirmed that it encoded the GAT enzyme. The gene encoding the GAT enzyme of B6 was transformed into E. coli strain XL1 Blue. A 10% innoculum of a saturated culture was added to Luria broth, and the culture was incubated at 37° C for 1 hr. Expression of GAT was induced by the addition of IPTG at a concentration of 1 mM. The culture was incubated a further 4 hrs, following which, cells were harvested by centrifugation and the cell pellet stored at -80°C.
Lysis of the cells was effected by the addition of 1 ml of the following buffer to 0.2 g of cells: 25 mM HEPES, pH 7.3, 100 mM KCl and 10% methanol (HKM) plus 0.1 mM EDTA, 1 mM DTT, 1 mg/ml chicken egg lysozyme, and a protease inhibitor cocktail obtained from Sigma and used according to the manufacturers recommendations. After 20 minutes incubation at room temperature (e.g., 22-25°C), lysis was completed with brief sonication. The lysate was centrifuged and the supernatant was desalted by passage through Sephadex G25 equilibrated with HKM. […]

CC(=O)SCCNC(=O)CCNC(=O)[C@H](O)C(C)(C)COP(=O)(O)OP(=O)(O)OC[C@H]1O[C@@H](n2cnc3c(N)ncnc32)[C@H](O)[C@@H]1OP(=O)(O)O [Acetyl CoA]
Km ([1]; read-out: apparent KM for Acetyl CoA, 5 mM glyphosate, 0.19 µM GAT, 5 mM morpholine pH 7.7, 50% methanol): ~2 µM

N[C@@H](CO)C(=O)O [Serine, L-serine]
kcat±SE [2]: 242 + 15.8 min^-1 | kcat±SE [3]: 6.47 ± 0.308 s⁻¹ | kcat±SE [4]: 14.2 s⁻¹

O=C(O)CNCP(=O)(O)O [glyphosate, N-phosphonomethylglycine]
kcat [5]: 0.0892 s⁻¹ | kcat [6]: < 0.00033 s⁻¹ | kcat [7]: 3.47 s⁻¹ | kcat [8]: 6.43 s⁻¹ | kcat [9]: 0.738 s⁻¹ | kcat ([1]; calculated from Vmax at a known concentration of enzyme, acetylation of glyphosate by Acetyl CoA): 0.1 s⁻¹ | kcat±SE [2]: 1150 ± 27.6 min⁻¹ | kcat±SE [3]: 24.67 ± 1.09 s⁻¹ | kcat±SE [4]: 0.0892 ± 0.000717 s⁻¹

B. licheniformis strain B6 glyphosate-N-acetyltransferase (GAT), native, B6, SEQ ID NO:7 (Bacillus licheniformis DSM 13 = ATCC 14580)
Km [10]: 2 µM | Km [11]: 2900 ± 200 µM | kcat [11]: 0.1 s⁻¹
